Patent publication US8796299B2, “NK1 antagonists” (OPKO Health, Inc., priority 2001, dated 2014)

Molecular target: NK1 receptor (Homo sapiens, UniProt P25103)
Experiment: NK1 receptor binding: inhibition of Substance P binding, Ki from the 50% inhibition concentration
Conditions: average Ki for the NK1 receptor
Description: Compounds having the formula (I) can be effective antagonists of the NK1 receptor, and of an effect of its endogenous agonist, Substance P, at the NK1 receptor site, and therefore, can be useful in treating conditions caused or aggravated by the activity of said receptor. The in vitro and in vivo NK1, NK2 and NK3 activities of the compounds having the formula (I) can be determined by various procedures known in the art, such as a test for their ability to inhibit the activity of the NK1 agonist Substance P. The percent inhibition of neurokinin agonist activity is the difference between the percent of maximum specific binding (“MSB”) and 100%. The percent of MSB is defined by the following equation, wherein “dpm” represents “disintegrations per minute”:
[formula] The concentration at which the compound produces 50% inhibition of binding is then used to determine an inhibition constant (“Ki”) using the Chang-Prusoff equation.
The activities (potencies) for the compounds of the invention are determined by measuring their Ki values. […] Even more preferred are compounds having average Ki values of from 0.01 nM to about 10 nM for the NK1 receptor. The most preferred compounds have NK1 average Ki values of from 0.01 nM to about 3 nM.

NK1 receptor, sequence (P25103 whole entry, species assumed): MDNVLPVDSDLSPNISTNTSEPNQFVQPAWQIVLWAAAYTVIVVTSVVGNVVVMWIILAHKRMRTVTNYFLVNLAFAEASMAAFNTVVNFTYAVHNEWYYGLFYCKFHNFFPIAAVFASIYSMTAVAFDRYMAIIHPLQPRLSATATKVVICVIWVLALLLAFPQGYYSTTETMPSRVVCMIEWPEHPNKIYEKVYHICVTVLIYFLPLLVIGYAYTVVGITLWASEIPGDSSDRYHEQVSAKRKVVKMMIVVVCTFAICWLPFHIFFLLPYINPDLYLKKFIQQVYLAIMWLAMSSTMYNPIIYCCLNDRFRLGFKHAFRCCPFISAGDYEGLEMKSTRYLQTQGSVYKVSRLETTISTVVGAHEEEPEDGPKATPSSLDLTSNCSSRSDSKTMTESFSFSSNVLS

**Q.** `C[C@@H](OC[C@@]1(c2ccccc2)CC[C@@]2(CN1)COC(=O)N2)c1cc(C(F)(F)F)cc(C(F)(F)F)c1` [Example 73b] was tested. Which Ki did it give?
**A.** 0.2 nM

**Q.** `C[C@@H](OC[C@@]1(c2ccccc2)CC[C@]2(CCCC(=O)N2)CN1)c1cc(C(F)(F)F)cc(C(F)(F)F)c1` [Example 110a] was tested. Which Ki did it give?
**A.** 0.41 nM

**Q.** For `C[C@@H](OC[C@@]1(c2ccccc2)CC[C@]2(CCOC(=O)N2)CN1)c1cc(C(F)(F)F)cc(C(F)(F)F)c1` [Example 111a], which Ki is on record?
**A.** 0.38 nM

**Q.** For `C[C@@H](OC[C@@]1(c2ccccc2)CC[C@]2(CN1)NC(=O)NC2=O)c1cc(C(F)(F)F)cc(C(F)(F)F)c1` [Example 43b], which Ki is on record?
**A.** 0.77 nM

**Q.** How did the Ki turn out when `C[C@@H](OC[C@@]1(c2ccccc2)CC[C@]2(CCC(=O)N2)CN1)c1cc(C(F)(F)F)cc(C(F)(F)F)c1` [Example 72a] was run?
**A.** 0.66 nM

**Q.** Which Ki does the source give for `C[C@@H](OC[C@@]1(c2ccccc2)CC[C@H](n2cn[nH]c2=O)CN1)c1cc(C(F)(F)F)cc(C(F)(F)F)c1` [Example 109] here?
**A.** 0.1 nM
